Data taken from patent US10568819B2, “Skin enhancing compositions and methods” (Sytheon Limited, priority 2016, dated 2020).
pIC50: −log10 of the molar value. Like-named read-outs stand apart in the source and are kept apart here.

How the values were obtained:
[1] = system: POT1; experiment: DNA microarray gene expression, POT1; format: cell-based
Description: (§1) In light of the efficacy of the aryl alkanones ire addressing many of the molecular/biomolecular processes damaged by UV exposure, a study was undertaken to assess whether these compounds would also be effective in addressing symptoms associated with non-UV induced skin aging including chronological aging as well as disease conditions that likewise adversely affect skin processes. The studies conducted involves DNA microarray, PCR array, cell culture, enzyme inhibitory activity.

[2] = system: NOX; details: Keratinocytes
[3] = system: Keratinocyte; experiment: UVA-induced delayed formation of CPDs (dCPDs) in keratinocytes; format: cell-based; details: 25 μg/ml
Method: A second study was carried out, similar to the first, except that this time the analysis was in assessing the efficacy, if any, of the presently taught aryl alkanones in reducing UVA-induced delayed formation of CPDs (dCPDs).

[4] = system: TNS2; experiment: DNA microarray gene expression, TNS2; format: cell-based
Description: as §1

[5] = target: MMP-12 (Homo sapiens, UniProt P39900); experiment: MMP-12 (Elastase) inhibition; format: biochemical; details: read-out: Inhibitory concentration (IC50), MMP-12
Sequence of MMP-12 (P39900 106-470): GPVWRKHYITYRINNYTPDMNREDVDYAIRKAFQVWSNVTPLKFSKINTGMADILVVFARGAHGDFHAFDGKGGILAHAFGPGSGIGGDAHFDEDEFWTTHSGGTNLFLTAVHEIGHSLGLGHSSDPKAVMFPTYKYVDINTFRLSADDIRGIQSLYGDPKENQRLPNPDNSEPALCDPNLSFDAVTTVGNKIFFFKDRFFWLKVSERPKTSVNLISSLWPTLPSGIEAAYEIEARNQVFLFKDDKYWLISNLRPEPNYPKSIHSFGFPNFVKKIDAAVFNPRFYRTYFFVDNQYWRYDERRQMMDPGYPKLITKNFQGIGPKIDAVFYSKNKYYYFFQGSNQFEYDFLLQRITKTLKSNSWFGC
Method: The methodology for the study of MMP-12 activity was as follows: • A 0.1 g sample of Compound 1 was dissolved in 1 ml DMSO, then it was diluted 100× with 1.4% randomly methylated cyclodextrin in Iris buffer (50 mM Tris pH 7.5, 150 mM NaCl, 2 mM CaCl2, 5μ ZnSO4, 0.01% Brij-35) to make a stock solution. For the analysis, different concentrations of Compound 1 were used to determine the IC50. In the well: 0.2 mM substrate, 0.25 μg/ml enzyme, and sample were mixed and read according to the reference (TSA Thring et al. BMC Complementary and Alternate Medicine, 9, 27, 2009; https://doi.org/10.1186/1472-6882-9-27)

[6] = system: COL3A1; experiment: DNA microarray gene expression, COL3A1; format: cell-based
Description: as §1

[7] = system: COL11A1; experiment: DNA microarray gene expression, COL11A1; format: cell-based
Description: as §1

[8] = target: T1, MMP-3 enzyme (Homo sapiens, UniProt P08254); experiment: MMP-3 inhibition; format: biochemical; details: read-out: Inhibitory concentration (IC50), MMP-3
T1 construct: purchased Anaspec
T1 sequence (P08254 100-477, species assumed): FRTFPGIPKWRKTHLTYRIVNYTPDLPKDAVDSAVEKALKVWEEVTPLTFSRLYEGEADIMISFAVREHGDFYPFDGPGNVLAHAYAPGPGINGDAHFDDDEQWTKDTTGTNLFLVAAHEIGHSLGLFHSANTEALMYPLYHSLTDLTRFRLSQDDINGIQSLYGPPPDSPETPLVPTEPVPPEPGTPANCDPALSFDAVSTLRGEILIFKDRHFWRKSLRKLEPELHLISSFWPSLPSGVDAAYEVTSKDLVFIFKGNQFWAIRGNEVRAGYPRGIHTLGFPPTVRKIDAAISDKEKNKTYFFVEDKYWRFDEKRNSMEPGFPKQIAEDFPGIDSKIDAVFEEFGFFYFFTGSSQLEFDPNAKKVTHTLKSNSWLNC
Method: Another study was conducted in which the elastin and MMP activity of Compound 1 was evaluated. The methodology for the study of MMP-1 and MMP-3 activity was as follows: • A 0.1 g sample of Compound 1 was dissolved in 1 ml DMSO, then it was diluted 100× with Tris buffer (50 mM Iris pH 7.5, 150 mM NaCl, 2 mM CaCl2, 5μ ZnO4, 0.01% Brij-35) to make a stock solution. For the analysis, different concentrations of Compound 1 were used to determine the IC50. The sample and 100 ng/ml MMP-1 enzyme (Anaspec) or MMP-3 enzyme (Anaspec) were incubated at 37° C. for 10 minutes before the addition of 2.25 μM PEPDAB008 substrate (Biozyme). The fluorescence signal was monitored at excitation of 485 nm and emission of 530 nm.

Compound: COc1cc(CC(C(C)=O)C(C)=O)ccc1O [Compound 1, Acetyl Zingerone]
- Microarray, POT1 gene expression [1]: +2.9
- reduction of NOX activity ([2]; UVA, 25 μg/ml): −27%
- reduction of NOX activity ([2]; UVA, 50 μg/ml): −38%
- reduction of NOX activity ([2]; UVB, 25 μg/ml): −11%
- reduction of NOX activity ([2]; UVB, 50 μg/ml): −29%
- UVA/% Reduction in dCPDs vs. control, 0 hr. (Reduction in iCPDs) ([3]; 0 hr.): ^+0 hr.: ↓14%
- UVA/% Reduction in dCPDs vs. control, 1 hr. ([3]; 1 hr.): 1 hr.: ↓43%
- UVA/% Reduction in dCPDs vs. control, 2 hr. ([3]; 2 hr.): 2 hr.: ~0%
- Microarray, TNS2 gene expression [4]: +1.7
- pIC50 [5]: 2.97
- Microarray, COL3A1 gene expression [6]: +1.7
- Microarray, COL11A1 gene expression [7]: +1.6
- pIC50 [8]: 2.67
